Assay results published in US20150011508A1, “COMPOUNDS AND COMPOSITIONS AS C-KIT KINASE INHIBITORS” (priority 2011, published 2015).

Each molecule was assayed against T1, c-kit (Homo sapiens, UniProt P10721) (assay: Mo7e cell proliferation assay (SCF dependent proliferation)). Conditions: Table 1; human Mo7e cells stimulated with human recombinant SCF, 48 h, CellTiter Glo; 1% FBS (footnote).
T1 construct: human Mo7e cells which endogenously express c-kit; endogenous in cells; host or cells: human Mo7e cells (SCF-dependent promegakaryocytic leukemia line)
T1 sequence (P10721 26-976): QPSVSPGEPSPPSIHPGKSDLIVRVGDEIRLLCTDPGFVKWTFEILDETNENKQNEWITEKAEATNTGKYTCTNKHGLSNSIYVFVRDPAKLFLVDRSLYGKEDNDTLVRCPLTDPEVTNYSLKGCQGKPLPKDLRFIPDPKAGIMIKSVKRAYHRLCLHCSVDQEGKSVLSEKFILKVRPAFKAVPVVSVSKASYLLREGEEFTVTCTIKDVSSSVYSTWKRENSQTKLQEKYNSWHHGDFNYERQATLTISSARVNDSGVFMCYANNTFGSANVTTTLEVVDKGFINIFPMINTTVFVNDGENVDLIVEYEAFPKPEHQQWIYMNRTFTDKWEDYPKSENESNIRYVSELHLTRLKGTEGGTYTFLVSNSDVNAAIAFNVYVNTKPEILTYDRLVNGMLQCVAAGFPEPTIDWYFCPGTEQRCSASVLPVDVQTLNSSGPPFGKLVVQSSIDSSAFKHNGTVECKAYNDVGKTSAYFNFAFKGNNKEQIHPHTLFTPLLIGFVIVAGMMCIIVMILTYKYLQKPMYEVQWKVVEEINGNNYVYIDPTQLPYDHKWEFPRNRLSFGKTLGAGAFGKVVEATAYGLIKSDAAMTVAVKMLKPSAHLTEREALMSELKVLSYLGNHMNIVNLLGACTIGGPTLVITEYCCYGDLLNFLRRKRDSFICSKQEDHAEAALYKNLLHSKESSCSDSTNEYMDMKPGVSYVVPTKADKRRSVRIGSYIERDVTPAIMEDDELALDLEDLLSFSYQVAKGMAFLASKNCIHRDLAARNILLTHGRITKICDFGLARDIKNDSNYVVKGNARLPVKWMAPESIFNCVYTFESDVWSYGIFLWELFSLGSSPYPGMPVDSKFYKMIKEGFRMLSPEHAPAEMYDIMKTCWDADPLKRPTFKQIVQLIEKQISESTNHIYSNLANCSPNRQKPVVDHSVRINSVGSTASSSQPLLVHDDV
Type: cell-based
In short: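 SCF-dependent proliferation of human Mo7e cells, which express c-kit endogenously, was measured after 48 h at 37° C by CellTiter Glo luminescence. IC50 was taken as the concentration giving a response halfway between the baseline and maximum responses.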
In the case of `Cc1ccn2c(C(=O)Nc3cc(-c4noc(CCC(C)(OC(=O)[C@H](C)N)C(F)(F)F)n4)ccc3C)cnc2c1` (stereo partly drawn) [F271, (2S)-1,1,1-trifluoro-2-methyl-4-(3-(4-methyl-3-(7-methylimidazo[1,2-a]pyridine-3-carboxamido)phenyl)-1,2,4-oxadiazol-5-yl)butan-2-yl 2-aminopropanoate], the IC50 is reported as 8 nM. Work on `COCCOCc1nc(-c2ccc(C)c(NC(=O)c3cnc4ccc(F)cn34)c2)no1` [F37] yielded an IC50 of 92 nM. `Cc1ccn2c(C(=O)Nc3cc(-c4noc(CC(O)(C(F)(F)F)C(F)(F)F)n4)ccc3C)cnc2c1` [F254] gave an IC50 of 51 nM. With `Cc1ccc(-c2noc(CCC(C)(C)O)n2)cc1NC(=O)c1cnc2cc(N3CCCC3=O)ccn12` [F62] the IC50 was 79 nM.
